Assays:
[1] = tested on: cornea-epithelial barrier; conditions: dexpanthenol-bearing eye drops; barrier disturbed by insufficient tear film; Klinische Monatsblätter für Augenheilkunde (1996) 209; 84-88; cited from earlier work
[2] = tear film tearing time (fluorescein, slit lamp); assay type: in vivo; conditions: concentration of 0.1% by weight to 0.3% by weight
Source text: A further diagnostic parameter in regard to diagnosis of the “dry eye” syndrome is the tear film tearing time which makes it possible to provide information about the quality of the tear fluid. In that case for example the tear film is dyed with fluorescein and the patient is then asked to keep the eyes open as long as possible without a blink reflex. A slit lamp is then used to establish when the tear film tears open for the first time. If the period of time is less than 10 seconds, there is the suspicion of the “dry eye” syndrome.

cornea epithelium = assay: wound healing after injury to the cornea epithelium or cauterisation of the cornea; assay type: in vivo; conditions: less scarring
[3] = subjective feeling of patients when treating dry eyes; assay type: in vivo; conditions: 0.1% by weight of sodium hyaluronate in the composition
Source text: Aqueous sodium hyaluronate solutions are fluids with non-Newtonian flow properties. By virtue of that physical property, aqueous sodium hyaluronate solutions are excellently well suited as slip and lubricating agents with a good cling effect and a prolonged residence time on the conjunctival and corneal epithelia, without adversely affecting visual efficiency.

[4] = eye drops containing at least 0.1% of sodium hyaluronate; Jpn. J. Ophthalmol. (1996) 40: 62-65; cited from earlier work
[5] = tested on: cornea epithelium cells of rabbits; assay: epithelium cell migration; assay type: cell-based; conditions: 0.1% by weight sodium hyaluronate solution

Compound	cornea-epithelial barrier function [1]	prolonging the tear film tearing time [2]	wound healing (cornea epithelium)	subjective feeling of the patients [3]	tear film stability [4]	epithelium cell migration [5]
CC(C)(CO)[C@@H](O)C(=O)NCCCO [dexpanthenol, D-(+)-2,4-dihydroxy-N-(3-hydroxypropyl)-3,5-dimethylbutyramide]	improve the cornea-epithelial barrier function					
hyaluronic acid		highly effective	faster and better wound healing			
sodium hyaluronate			faster and better wound healing	considerably improves	improvement in tear film stability	increased epithelium cell migration

Reference: US20050164979A1, “Pharmaceutical composition for ophthalmological and rhinological application” (priority 2001, published 2005)
